Results: patent US10420824B2, “Induced activation in dendritic cells” (BAYLOR COLLEGE OF MEDICINE, priority 2003, dated 2019)

Columns and labels:
CD40 = experiment: Flow cytometry of CD40 on D2SC/1 DC line after CD40L and inhibitors; assay type: cell-based
Method: FIG. 8A-FIG. 8C show CD40L downregulates and reduces the signaling capacity of CD40. FIG. 8A provides two graphs showing endocytosis inhibition reduces CD40 downregulation. D2SC/1 cell lines were incubated with 250 μM cytochalasin B for 1 hour followed by a 30 min CD40L treatment. D2SC/1 cells were also treated with cytochalasin B, the DMSO solvent control, and CD40L alone. K^+-depletion of the D2SC/1 cell line was also carried out prior to CD40 surface staining and flow cytometry analysis. Only viable cells were gated for analysis. FIG. 8B provides flow cytometry analysis showing inhibition of lysosomal degradation enhances intracellular CD40 levels. D2SC/1 cell lines were incubated with 0.5 μM bafilomycin A inhibitor for 1 hour followed by intracellular staining for CD40 (Total CD40). Total CD40 is compared to surface CD40 fluorescence. FIG. 8C is a graph showing inhibition of endocytosis intensifies the CD40 activation signal in DC Lines. Staining and analysis of surface H-2K^d.
To initially investigate the potential downregulation of surface CD40 upon ligand engagement, flow cytometric analysis of DC surface expression of CD40 was monitored in the presence and absence of CD40L.

[1] = test system: syngeneic lymph node (LN)-derived cells; experiment: Mixed lymphocyte reaction, 3H-thymidine T cell proliferation with mitomycin C-treated D2SC/1 DCs; assay type: cell-based; settings: purified CD8+ T cells from LN tissue (>95%), no CD4+ help
Method: The initial approach to the determination of the T cell stimulation capacity of iCD40 DCs involved the co-incubation of mitomycin C-treated D2SC/1 DCs with syngeneic lymph node (LN)-derived cells in vitro. This mixed lymphocyte reaction (MLR) assay measured the ability of iCD40 DCs to induce a syngeneic T cell proliferative response to bovine serum-derived xenogeneic antigens (FIG. 3C). […] In order to investigate whether this T cell activation effect was dependent on CD4+ T cell help, CD8+ T cells from LN tissue (>95%) were purified and the ^3H-thymidine-based proliferation assay was repeated (FIG. 3C). […] Furthermore, the CD4+-depletion data inferred that the iCD40 receptor may be capable of substituting for CD4+ T cell help in DC-based vaccination strategies.

IL-12 = experiment: Intracellular cytokine staining of IL-12 in BMDCs; assay type: cell-based, C57BL/6 mice; settings: decreased thereafter
Text: A viral region E1 and E3-deleted, replication-deficient type 5 adenoviral vector was engineered to express both iCD40 and EGFP under the control of the CMV early/immediate promoter/enhancer. Ad-iCD40-GFP successfully transduced and expressed the iCD40 transgene, as well as the EGFP marker, in purified BMDCs (FIG. 5A,B). […] The effects of Ad-iCD40-GFP on BMDCs were studied by using intracellular cytokine staining to evaluate DC expression of the TH1-polarizing cytokine, IL-12. The results confirmed numerous previous reports that an empty adenoviral vector can contribute to background fluorescence readings by stimulating the production of low levels of this cytokine (FIG. 5D) (Korst 2002).

RelB = experiment: Nuclear translocation of RelB by western blot of nuclear lysates of iCD40 D2SC/1 DCs, with pulse-chase; assay type: cell-based; settings: pulse-chase experiments
Text: FIG. 2A-FIG. 2F show inducible CD40 initiates a potent NFkB signal in DCs. FIG. 2A is a photograph of an anti-HA Western Blot Analysis of iCD40 D2SC/1 DC Clones. FIG. 2B is a photograph of anti-HA Immunofluorescence of D2SC/1.Hi (lt) and D2SC/1 (rt) FIG. 2C is a graph of results of an NFκB-SEAP Reporter Assay. FIG. 2D is a graph of results and a photograph that show induction of RelB and Sp1 in D2SC/1.Hi by AP20187. FIG. 2E is a graph of results and a photograph of results of assays where maximum concentrations of each agent (based on titrations) were co-incubated with iCD40 D2SC/1 for 24 hrs and nuclear lysates were analyzed by western blot.
Reporter assays were carried out in these cell lines to determine whether iCD40 could also induce NFκB activation in DCs. […] Several studies have identified that the RelB subunit of NFκB plays a significant role in the DC maturation program (Pettit 1997; Martin 2003). […] Therefore, as a surrogate marker for DC activation, the nuclear translocation of RelB was analyzed by western blot in iCD40 DCs exposed to log dilutions of AP20187 (FIG. 2D).
DC activation potency of iCD40 was compared with other traditional DC maturation stimuli, such as LPS, TNFα, anti-CD40 mAb, and CD40L. […]

iCD40-IICD40 DC lines = experiment: iCD40-IICD40 double-stable D2SC/1 DC lines, western blot and H-2K^d surface expression; assay type: cell-based; settings: IICD40-expressing lines vs empty vector control
Text: FIG. 9A-FIG. 9D show iCD40 circumvents negative feedback inhibition by the Type II CD40 (IICD40) isoform. FIG. 9A is a schematic of Type I, II, and iCD40. […] The type II CD40 isoform was rt-PCR amplified from purified BMDCs, subcloned into a pEF-1α-driven myc-tagged ZeoR vector, and transfected into iCD40-expressing D2SC/1 cells. Double clonal stable lines were generated by G418/zeocin selection and limiting dilution. Resulting lines were screened for IICD40 expression by anti-myc western blot and analyzed for iCD40 expression by anti-HA western blots. FIG. 9C is a graph showing that Type II CD40 down-regulates surface expression of Type I CD40 in DC Lines. Empty vector control and IICD40-expressing D2SC/1 lines were analyzed for their surface expression of CD40 by flow cytometry. Only viable cells were gated for analysis. FIG. 9D provides two graphs showing the Type II CD40 isoform downmodulates Type I CD40 signaling, but not iCD40 signaling. iCD40-IICD40-expressing D2SC/1 cell lines were cultured in the presence of increasing concentrations of CD40L and the AP20187 drug followed by surface staining and flow analysis of H-2K^d. […]
To expand upon these findings, the effects of CD40L and AP20187 titrations on each of the IICD40 lines were analyzed based on the hypothesis that IICD40-mediated type I CD40 downregulation should blunt the DC response to CD40L but not to AP20187 (FIG. 9D).

**Q.** How did the “total CD40 levels (intracellular staining)” value (CD40; endosomal H^+ATPase inhibitor) turn out when balifomycin A1 was run?
**A.** The value was “enhanced total CD40 levels”.

**Q.** lipopolysaccharide [LPS] was tested. Which “CD8+ T cell proliferation” value [1] did it give?
**A.** Its value is “failed to circumvent the requirement for CD4+ T cell-derived helper signals”.

**Q.** What about the “time of peak IL-12p70/p40 synthesis” value (IL-12) of the same molecule?
**A.** Its value is 8 h.

**Q.** How did the “sensitivity of CD40L-induced CD40 downregulation to inhibitor” value (CD40; endocytosis inhibitor) turn out when `C=C1[C@@H](C)[C@H]2[C@H](Cc3ccccc3)NC(=O)[C@]23OC(=O)/C=C/[C@H](O)CCC[C@@H](C)C/C=C/[C@H]3[C@@H]1O` [cytocholasin B] was run?
**A.** Its value is “sensitive”.

**Q.** How did the “duration of RelB induction” value (RelB) turn out when TNFα was run?
**A.** Its value is 24 h.

B1: CD40L: CD40 ligand (protein)
chain: MIETYNQTSPRSAATGLPISMKIFMYLLTVFLITQMIGSALFAVYLHRRLDKIEDERNLHEDFVFMKTIQRCNTGERSLSLLNCEEIKSQFEGFVKDIMLNKEETKKENSFEMQKGDQNPQIAAHVISEASSKTTSVLQWAEKGYYTMSNNLVTLENGKQLTVKRQGLYYIYAQVTFCSNREASSQAPFIASLCLKSPGRFERILLRAANTHSSAKPCGQQSIHLGGVFELQPGASVFVNVTDPSQVSHGTGFTSFGLLKL
**Q.** B1 was tested. Which “time of peak IL-12p70/p40 synthesis” value (IL-12) did it give?
**A.** Its value is 8 h.

**Q.** What about the “surface CD40 mean fluorescence intensity” value (CD40; D2SC/1 DC line, rapid kinetics) of the same molecule?
**A.** The value was “promptly reduced the mean fluorescence intensity of CD40”.

**Q.** And the “MHC class I H-2K^d surface expression dose-response” value (iCD40-IICD40 DC lines)?
**A.** The value was “elevated amounts of CD40L were required to initiate signaling through the CD40 axis”.
